From patent publication US20020090380A1, “Novel formulation comprising thymol useful in the treatment of drug resistant bacterial infections” (priority 2000, published 2002)
Like-named read-outs stand apart in the source and are kept apart here.

Key:
[1] = test system: Ethidium bromide resistant strain of Mycobacterium smegmetis; format: cell-based
[2] = test system: lomefloxacin resistant cells of E. coli; format: cell-based, Escherichia coli; conditions: 50 μg/ml
E. coli cells = experiment: microbe, parasite or virus in culture; format: cell-based; conditions: Escherichia coli
E. coli CA 8000 (WT) = format: cell-based, Escherichia coli; conditions: CA 8000 (WT), 50 μg/ml
Nal^R mutants of E. coli = format: cell-based, Escherichia coli; conditions: 50 μg/ml

O=C(N[C@H](CO)[C@H](O)c1ccc([N+](=O)[O-])cc1)C(Cl)Cl [Chloromphenicol]
concentration against which the strain is resistant (mdr) [1]: 20 µg/mL

CN(C)[C@@H]1C(O)=C(C(N)=O)C(=O)[C@@]2(O)C(O)=C3C(=O)c4c(O)cccc4[C@@](C)(O)[C@H]3C[C@@H]12 [Tetracycline]
concentration against which the strain is resistant (mdr) [1]: 10 µg/mL

CCn1cc(C(=O)O)c(=O)c2ccc(C)nc21 [Nalidixic Acid, nalidixic acid]
Growth in poison agar medium ([2]; CAL 101): + | Growth in poison agar medium ([2]; CAL 102): + | Growth in poison agar medium ([2]; CAL 103): + | Growth in poison agar medium ([2]; CAL 104): + | Growth in poison agar medium ([2]; CAL 105): + | Growth in poison agar medium ([2]; CAL 106): + | Growth in poison agar medium ([2]; CAL 107): + | Growth in poison agar medium ([2]; CAL 108): + | zone of inhibition at 0.25 µg/disc (E. coli cells; nalidixic acid 0.25 μg/disc): 3 mm | zone of inhibition at 0.5 µg/disc (E. coli cells; nalidixic acid 0.50 μg/disc): 6 mm | zone of inhibition at 1 µg/disc (E. coli cells; nalidixic acid 1.00 μg/disc): 9 mm | zone of inhibition at 1.5 µg/disc (E. coli cells; nalidixic acid 1.50 μg/disc): 11 mm | zone of inhibition at 2 µg/disc (E. coli cells; nalidixic acid 2.00 μg/disc): 12 mm | Growth in poison agar medium (E. coli CA 8000 (WT); Table 2): − | Growth in poison agar medium (E. coli CA 8000 (WT); Table 4): − | Growth in poison agar medium (Nal^R mutants of E. coli; CAN 101): + | Growth in poison agar medium (Nal^R mutants of E. coli; CAN 102): + | Growth in poison agar medium (Nal^R mutants of E. coli; CAN 103): + | Growth in poison agar medium (Nal^R mutants of E. coli; CAN 104): + | Growth in poison agar medium (Nal^R mutants of E. coli; CAN 105): + | Growth in poison agar medium (Nal^R mutants of E. coli; CAN 106): + | Growth in poison agar medium (Nal^R mutants of E. coli; CAN 107): + | Growth in poison agar medium (Nal^R mutants of E. coli; CAN 108): + | Growth in poison agar medium (Nal^R mutants of E. coli; CAN 109): + | Growth in poison agar medium (Nal^R mutants of E. coli; CAN 110): + | Growth in poison agar medium (Nal^R mutants of E. coli; CAN 111): + | Growth in poison agar medium (Nal^R mutants of E. coli; CAN 112): + | Growth in poison agar medium (Nal^R mutants of E. coli; CAN 113): + | Growth in poison agar medium (Nal^R mutants of E. coli; CAN 114): + | Growth in poison agar medium (Nal^R mutants of E. coli; CAN 115): + | Growth in poison agar medium (Nal^R mutants of E. coli; CAN 116): + | Growth in poison agar medium (Nal^R mutants of E. coli; CAN 117): + | Growth in poison agar medium (Nal^R mutants of E. coli; CAN 118): + | Growth in poison agar medium (Nal^R mutants of E. coli; CAN 119): + | Growth in poison agar medium (Nal^R mutants of E. coli; CAN 120): + | Growth in poison agar medium (Nal^R mutants of E. coli; CAN 121): + | Growth in poison agar medium (Nal^R mutants of E. coli; CAN 122): + | Growth in poison agar medium (Nal^R mutants of E. coli; CAN 123): + | Growth in poison agar medium (Nal^R mutants of E. coli; CAN 124): + | Growth in poison agar medium (Nal^R mutants of E. coli; CAN 125): + | Growth in poison agar medium (Nal^R mutants of E. coli; CAN 126): +

CO[C@H]1/C=C/O[C@@]2(C)Oc3c(C)c(O)c4c(O)c(c(/C=N/N5CCN(C)CC5)c(O)c4c3C2=O)NC(=O)/C(C)=C\C=C\[C@H](C)[C@H](O)[C@@H](C)[C@@H](O)[C@@H](C)[C@H](OC(C)=O)[C@@H]1C [Rifampicin]
concentration against which the strain is resistant (mdr) [1]: 40 µg/mL
